Results: patent publication US8791132B2, “Compounds and methods for treatment of hypertension” (Medivation Technologies, Inc., priority 2011, dated 2014)
Where “and” joins values, the source holds several entries; their conditions need not be identical. Equal values may be shown once. Read-outs that look alike come from different tables or passages of the source.

Legend:
[1] = target: T1, human recombinant adrenergic α2B receptor (Homo sapiens, UniProt P18089); experiment: Radioligand binding, adrenergic α2B ([3H]Rauwolscine); settings: for Ki: read-out: Ki α2B
T1 construct: expressed in transfected cells; host or cells: CHO-K1
T1 sequence (P18089 1-450): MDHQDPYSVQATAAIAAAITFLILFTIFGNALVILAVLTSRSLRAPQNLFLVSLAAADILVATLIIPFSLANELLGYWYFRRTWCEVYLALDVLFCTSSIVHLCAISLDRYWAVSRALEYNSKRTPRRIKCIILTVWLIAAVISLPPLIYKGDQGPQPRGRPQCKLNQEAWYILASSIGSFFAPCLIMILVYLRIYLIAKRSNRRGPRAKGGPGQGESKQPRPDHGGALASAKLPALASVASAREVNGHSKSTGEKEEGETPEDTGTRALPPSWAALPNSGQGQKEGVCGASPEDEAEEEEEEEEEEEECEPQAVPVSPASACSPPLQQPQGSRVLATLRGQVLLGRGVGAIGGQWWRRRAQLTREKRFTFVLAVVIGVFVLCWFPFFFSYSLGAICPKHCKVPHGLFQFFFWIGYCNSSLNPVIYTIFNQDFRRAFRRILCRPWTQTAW
Method in brief: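 Receptor expressed in CHO-K1 cells, assayed in 50 mM Tris-HCl pH 7.4 with 12.5 mM MgCl2, 1 mM EDTA and 0.2% BSA. Compounds were incubated with 2.5 nM [3H]Rauwolscine for 60 min at 25° C; 10 μM Prazosin defined non-specific binding. Filter counting gave percent inhibition of specific binding.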

[2] = test system: spontaneously hypertensive rats (SHR); experiment: Blood pressure in spontaneously hypertensive rat (SHR) model of hypertension; type: in vivo; settings: for systolic blood pressure lowering effects: escalating doses 1, 3, 10 and 30 mg/kg/iv for every 30 minutes (FIGS. 20-22)
Experimental: Male spontaneously hypertensive rats (SHR), approximately 3 months of age and weighting approximately 250 grams were utilized. Free access to standard lab chow for rats and reverse osmosis (RO) water was granted. All aspects of this work, including housing, experimentation and disposal of animals were performed in general accordance with the Guide for the Care and Use of Laboratory Animals (National Academy Press, Washington, D.C., 1996).
The animals were anaesthetized with sodium pentobarbital (50 mg/kg IP). The left carotid artery when compound dosed orally (PO) or subcutaneously (SC); and both left carotid and femoral artery when compound dosed intravenous (i.v.) were cannulated with a polyethylene catheter (38 cm in length; PE60, Portex, Ltd.) connected with a polyurethane tubing (12 cm in length; PU-40, Cat. #BB520-40, Scientific Commodities, Inc.), which was tunneled under the skin and exited through the nape of the neck. The arterial cannula was connected to a pressure transducer through a swivel system, allowing free roaming during continuous recording of mean arterial pressure and heart rate. The animals were housed individually with food and water freely available during recovery. On the following day, the arterial cannula was connected via a Statham (P 23×L) pressure transducer to a NEC/San-Ei amplifier and data acquisition and analysis system (Power Lab 8/SP) for direct mean arterial pressure and heart rate measurements.
The test compounds, dissolved in sterile saline, were administered subcutaneously (SC) or orally (PO), or by intravenous (i.v.) bolus administration in two minutes or the escalating doses of compound administration in every 30 minutes, with each dose and its strength delivered over 2 minutes as shown in the respective figures; the internal standard phentolamine was given by oral gavage. The control group received vehicle alone. Immediately before (−10 min and −5 min) and at 15 min, 30 min, 1 hr, 1.5 hr, 2 hr, 2.5 hr, 3 hr, 3.5 hr, and 4 hr post-dosing, systolic pressure blood pressure values were recorded.

SH-SY5Y cells = experiment: Cell death (LDH release) in hydrogen peroxide-treated SH-SY5Y cells; type: cell-based; settings: LDH release normalized to vehicle (=100); hydrogen peroxide 300 μM, 24 h; compounds at 10 nM
Experimental: SH-SY5Y cells cultured in DMEM/F12 media supplemented with 10% FBS were seeded in 96-well microplates at 150,000 cells/cm^2. After 24 h, cells were depleted from FBS and kept in culture for 24 h before the experiment. Cells were then treated with 4-Br-A23187 (2 μM), hydrogen peroxide (300 μM) or the mitochondrial toxin rotenone (25 μM) in the presence of vehicle or Compound of the Invention for 24 h. Cell death was determined by measurements of LDH release according to the Cytotoxicity Detection KitPlus (Roche, Mannheim, Germany). Cell viability was determined by measuring the capacity of cells to metabolize MTS tetrazolium (MTS) according to the Cytotoxicity Detection KitPlus (Roche, Mannheim, Germany) and MTS reduction is assessed by the CellTiter 96® AQueous One Solution Cell Proliferation assay (Promega Corporation, Madison, Wis., USA). Compounds were screened at 10 nM, using DMSO as vehicle. Assay results for the experiments with hydrogen peroxide are presented as the LDH release (cell death) of untreated cells (control), hydrogen peroxide-treated cells (vehicle), and co-incubation of hydrogen peroxide with Compounds of the Invention treated cells normalized to the vehicle (FIG. 17A). This assay assesses the ability of the test compounds to protect against cell death that is mediated by mitochondrial dysfunction. In the assay, the calcium ionophore 4-Br-A23187 is used to challenge the cells, causing calcium levels to rise in mitochondria, which leads to depolarization and cell death. Test compounds are assessed for their ability to prevent cell death in response to challenge with 4-Br-A23187.

[3] = compound at 0.03 μM, [3H]Rauwolscine, repeat assays, each datapoint shown, read-out: Percentage inhibition of ligand binding, Adrenergic α2B
[4] = compound at 0.1 μM, [3H]Rauwolscine, repeat assays, each datapoint shown, 0.1 µM
[5] = compound at 0.1 μM, [3H]Rauwolscine, repeat assays, each datapoint shown, read-out: Percentage inhibition of ligand binding, Adrenergic α2B
[6] = SC or PO, 4 hour study period (FIGS. 7-10)
[7] = compound at 0.03 μM, [3H]Rauwolscine, repeat assays, each datapoint shown, 0.03 µM
[8] = compound at 0.03 μM, [3H]Rauwolscine, repeat datapoints each shown, 0.03 µM
[9] = read-out: Percentage inhibition of ligand binding, Adrenergic α2B (0.1 μM), compound at 0.1 μM, [3H]Rauwolscine, repeat datapoints each shown

Structure (SMILES)	inhibition at 0.03 µM [1, 3] [%]	Ki [1]	Percentage inhibition of ligand binding, Adrenergic α2B [1, 7]	systolic blood pressure [2, 6]	LDH release (cell death), relative to vehicle (SH-SY5Y cells)	also measured
Cc1ccc2c(c1)c1c(n2CC(O)c2ccncc2)CCN(C)C1 (stereo not shown) [compound 3]	99	0.64 nM	–	dose-dependent reduction in systolic blood pressure	–	Percentage inhibition of ligand binding, Adrenergic α2B [1, 4]: 103%; inhibition at 0.1 µM [1, 5]: 100%
Cc1cnc2c(c1)c1c(n2CC(C)(O)c2cccnc2)CCN2CCCC12 (single isomer, unassigned) [26a]	–	0.56 nM	101% and 107%	–	–	systolic blood pressure lowering effects [2]: robust
Cc1ccc2c(c1)c1c(n2CC(C)(O)c2cnccn2)CCN2CCCC12 (single isomer, unassigned) [176a]	–	0.53 nM	–	–	–	Percentage inhibition of ligand binding, Adrenergic α2B (0.03 μM) [1, 8]: 93% and 98% and 100%; inhibition at 0.1 µM [1, 9]: 105%; systolic blood pressure lowering effects [2]: robust
Cc1ccc2c(c1)c1c(n2CC(C)(O)c2cccnc2)CCN(C)C1 (single isomer, unassigned) [5b, 1-(1,2,3,4-tetrahydro-2,8-dimethylpyrido[4,3-b]indol-5-yl)-2-(pyridin-3-yl)propan-2-ol]	–	0.95 nM and 1.06 nM and 4.53 nM	81% and 86% and 90% and 100%	–	73.73	Percentage inhibition of ligand binding, Adrenergic α2B [1, 4]: 82% and 100% and 107%
Cc1ccc2c(c1)c1c(n2CC(O)c2ccncc2)CCNC1 (single isomer, unassigned) [39a, 2-(8-methyl-1,2,3,4-tetrahydro-pyrido[4,3-b]indol-5-yl)-1-pyridin-4-yl-ethanol]	86	2.5 nM	–	–	82.94	inhibition at 0.1 µM [1, 5]: 92%
Cc1ccc2c(c1)c1c(n2CC(O)c2ccncc2)CCN(C)CC1 (single isomer, unassigned) [13b, 2-(3,9-dimethyl-2,3,4,5-tetrahydroazepino[4,5-b]indol-6(1H)-yl)-1-(pyridin-4-yl)ethanol]	100	0.62 nM	102%	lowered systolic blood pressure	–	–

More lines, main results first:

inhibition at 0.03 µM [1, 3] [%]	Ki [1]	Percentage inhibition of ligand binding, Adrenergic α2B [1, 7]	Structure (SMILES)	systolic blood pressure [2, 6]	LDH release (cell death), relative to vehicle (SH-SY5Y cells)	also measured
–	–	14%	CN1CCc2c(n(CC(O)c3ccncc3)c3ccc(Cl)cc23)C1 (single isomer, unassigned) [41a]	markedly lowered blood pressure	–	–
–	1.7 nM and 2.36 nM	–	Cc1ccc2c(c1)c1c(n2CC(O)c2ccc(C(N)=O)nc2)CCN(C)C1 (single isomer, unassigned) [144b, 5-[2-(2,8-dimethyl-1,2,3,4-tetrahydro-pyrido[4,3-b]indol-5-yl)-1-hydroxy-ethyl]-pyridine-2-carboxylic acid amide]	–	–	Percentage inhibition of ligand binding, Adrenergic α2B (0.03 μM) [1, 8]: 85% and 87%; Percentage inhibition of ligand binding, Adrenergic α2B (0.1 μM) ([1]; compound at 0.1 μM, [3H]Rauwolscine, repeat datapoints each shown, 0.1 µM): 102%; inhibition at 0.03 µM ([1]; read-out: Percentage inhibition of ligand binding, Adrenergic α2B (0.03 μM), compound at 0.03 μM, [3H]Rauwolscine, repeat datapoints each shown): 83%; inhibition at 0.1 µM [1, 9]: 100%; systolic blood pressure ([2]; i.v. bolus in 2 minutes (FIG. 19)): marked reduction in systolic blood pressure
99	0.64 nM	103%	CN1CCc2c(c3cc(Cl)ccc3n2CC(O)c2ccncc2)C1 (single isomer, unassigned) [4a]	–	81.64	inhibition at 0.1 µM [1, 5]: 104%
–	0.26 nM and 0.28 nM and 0.46 nM	100% and 101% and 102% and 112%	Cc1ccc2c(c1)c1c(n2CC(O)c2ccncc2)CCN(C)C1 (single isomer, unassigned) [3b]	lowered systolic blood pressure	86.70	–
–	4.32 nM	76% and 83%	Cc1ccc2c(c1)c1c(n2CC(N)c2ccncc2)CCN(C)C1 (single isomer, unassigned) [27a, 2-(1,2,3,4-tetrahydro-2,8-dimethylpyrido[4,3-b]indol-5-yl)-1-(pyridin-4-yl)ethanamine]	–	–	Percentage inhibition of ligand binding, Adrenergic α2B [1, 4]: 94%; systolic blood pressure lowering effects [2]: robust; heart rate ([2]; when systolic blood pressure falls (data not shown)): neutral effect on heart rate
–	0.35 nM	–	Cc1ccc2c(c1)c1c(n2CC(O)c2ccncc2)CCN2CCCC12 (single isomer, unassigned) [129d]	–	–	heart rate ([2]; oral or iv bolus or i.v. escalating doses): tachycardia; effects on systolic blood pressure ([2]; oral or iv bolus or i.v. escalating doses (FIGS. 23-25)): robust
